Measured values taken from patent US20080096969A1, “N alpha-(Menthanecarbonyl)amino acid amides and use thereof as physiological cooling active ingredients” (SYMRISE GMBH & CO. KG, priority 2006, published 2008).

What was measured:
[1] = study of approx. 1200 compounds; cited from earlier work
[2] = forms the free acid N-(L-menthanecarbonyl)glycine; cited from earlier work
[3] = Organoleptic test of cooling action in confectioner's fondant by a panel of experts; assay type: in vivo; settings: 0.05 wt. % relative to the overall preparation, scale from 1 (no cooling action) to 9 (extremely strong cooling action)
Experimental: The compounds were tested for their organoleptic properties, in particular their cooling action. To this end, they were dissolved, in each case in a specific final concentration, in a mass prepared from sucrose (saccharose) and water (confectioner's fondant, supplier Nordzucker A G, Nordstemmen) and evaluated by a panel of experts. Sensory impressions were rated and the cooling action was assessed on a scale from 1 (no cooling action) to 9 (extremely strong cooling action).

| SMILES | cooling action (literature) [1] | susceptibility to hydrolysis [2] | cooling action [3] |
| --- | --- | --- | --- |
| CCNC(=O)C1CC(C)CCC1C(C)C [WS3, L-menthane carboxylic acid N-ethylamide] | most strongly cooling active ingredients |  |  |
| CCOC(=O)CNC(=O)C1CC(C)CCC1C(C)C [WS5, N^α-(L-menthanecarbonyl)glycine ethyl ester] | most strongly cooling active ingredients | susceptible to hydrolysis |  |
| CC(C)CNC(=O)CNC(=O)[C@@H]1C[C@H](C)CC[C@H]1C(C)C [Example 1, L-N^α-(menthanecarboxyl)glycine-N-isobutylamide] |  |  | 5 |
| CC1CCC(C(C)C)C(C(=O)NCC(=O)O)C1 [N-(L-menthanecarbonyl)glycine] | very weak cooling action |  |  |
